Test results from patent US20140256664A1, “COMPOSITIONS AND METHODS FOR A MYCOBACTERIUM TUBERCULOSIS DRUG SUSCEPTIBILITY TEST” (priority 2011, published 2014).
Several values for one entry are separate records, joined by “and”; a condition that tells them apart may be missing. Equal entries are not always repeated. Structures can show the parent of a compound that is named as a salt. Where two headings read alike, the source gives them in different places.

What was measured:
Assay type in all cases: cell-based, Mycobacterium tuberculosis
[1] = system: 33 isolates of M. tuberculosis
[2] = system: M. tuberculosis isolates
[3] = system: M. tuberculosis isolates; remark: listed apart in the source
[4] = system: clinical MDR strain (INH, RIF, EMB, STR resistant)

Row | Molecule | D29 phage assay Resistant (n isolates) [1] | D29 phage assay susceptible (n isolates) [1] | ΔCt of D29 phage assay resistant isolates [1] | Agar proportion Resistant (n isolates) [2] | Agar proportion susceptible (n isolates) [2] | number of phage / real-time PCR Ct value after drug pre-treatment [4] | also measured
1 | CC[C@@H](CO)NCCN[C@@H](CC)CO [Ethambutol, ethambutol hydrochloride] | – | – | – | – | – | – | D29 phage assay Resistant (n isolates) ([1]; listed as EMB, hydrochloride): 0; Agar proportion Resistant (n isolates) ([2]; listed as EMB, hydrochloride): 0
2 | NCC[C@H](O)C(=O)N[C@@H]1C[C@H](N)[C@@H](O[C@H]2O[C@H](CN)[C@@H](O)[C@H](O)[C@H]2O)[C@H](O)[C@H]1O[C@H]1O[C@H](CO)[C@@H](O)[C@H](N)[C@H]1O [Amikacin, amikacin] | 1(−2.9) and 1(2.4) | 0 | 1(−2.9) and 1(2.4) | 1(16) and 1(8) | 0 | – | D29 phage assay Resistant (n isolates) ([1]; listed as AMK): 0; MIC of agar proportion resistant isolates [3]: 1(16) μg/ml and 1(8) μg/ml; Agar proportion Resistant (n isolates) ([2]; listed as AMK): 0
3 | NNC(=O)c1ccncc1 [Isoniazid, isoniazid] | – | 0 | – | – | 0 | the phage number increased/Ct value decreased | D29 phage assay Resistant (n isolates) ([1]; listed as INH): 1 and 2
4 | CO[C@H]1/C=C/O[C@@]2(C)Oc3c(C)c(O)c4c(O)c(c(/C=N/N5CCN(C)CC5)c(O)c4c3C2=O)NC(=O)/C(C)=C\C=C\[C@H](C)[C@H](O)[C@@H](C)[C@@H](O)[C@@H](C)[C@H](OC(C)=O)[C@@H]1C [Rifampin, rifampin] | – | 0 | – | – | 0 | the phage number increased/Ct value decreased | ΔCtRIF (Ct control−Ct drug) ([4]; […], drug, Tb inoculum and phage added at once, 24 h): −1
5 | capreomycin sulfate | 1(−5.4) and 1(−3.3) | 0 | 1(−5.4) and 1(−3.3) | 1(ND) | 0 | – | D29 phage assay Resistant (n isolates) ([1]; listed as CAP): 1; ΔCt of D29 phage assay resistant isolates ([1]; listed as CAP): −5.4; Agar proportion Resistant (n isolates) ([2]; listed as CAP): 0
